Assays:
Assay in all cases: relative viability (nuclei count vs DMSO), 5 days (fraction); higher = more cells survive
XMD8-85 + Lapatinib = compound: CN1CCN(CC1)C2=CC(=C(C=C2)NC3=NC=C4C(=N3)N(C5=CC=CC=C5C(=O)N4C)C)OC [XMD8-85] + CS(=O)(=O)CCNCc1ccc(-c2ccc3ncnc(Nc4ccc(OCc5cccc(F)c5)c(Cl)c4)c3c2)o1 [Lapatinib] (partner 2 µM)
Outline: (§1)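 Relative viability was taken as the ratio of nuclei in treated wells to nuclei in vehicle wells. Lung cancer cell lines in 1536-well plates received compounds by pin tool one day after seeding, either one drug alone or a fixed anchor-drug dose plus five library-drug doses (not always all listed) in √10 steps. Nuclei were counted on 4× images after 5 days of treatment, and values are medians of duplicate plates.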

4EGI-1 + Tozasertib = compound: O=C(O)C(Cc1ccccc1[N+](=O)[O-])=NNc1nc(-c2ccc(Cl)c(Cl)c2)cs1 (mixture of isomers) [4EGI-1] + Cc1cc(Nc2cc(N3CCN(C)CC3)nc(Sc3ccc(NC(=O)C4CC4)cc3)n2)n[nH]1 [Tozasertib] (partner 0.1 µM)
Outline: as §1

4EGI-1 + Alpelisib = compound: O=C(O)C(Cc1ccccc1[N+](=O)[O-])=NNc1nc(-c2ccc(Cl)c(Cl)c2)cs1 (mixture of isomers) [4EGI-1] + Cc1nc(NC(=O)N2CCC[C@H]2C(N)=O)sc1-c1ccnc(C(C)(C)C(F)(F)F)c1 [Alpelisib] (partner 2 µM)
Outline: as §1

4EGI-1 + Olaparib = compound: O=C(O)C(Cc1ccccc1[N+](=O)[O-])=NNc1nc(-c2ccc(Cl)c(Cl)c2)cs1 (mixture of isomers) [4EGI-1] + O=C(c1cc(Cc2n[nH]c(=O)c3ccccc23)ccc1F)N1CCN(C(=O)C2CC2)CC1 [Olaparib] (partner 8 µM)
Outline: as §1

Cell Line | relative viability (XMD8-85 + Lapatinib; first compound 0.08 µM) | relative viability (XMD8-85 + Lapatinib; first compound 0.253 µM) | relative viability (XMD8-85 + Lapatinib; first compound 2.53 µM) | relative viability (XMD8-85 + Lapatinib; first compound 8 µM) | relative viability (4EGI-1 + Tozasertib; first compound 0.5 µM) | relative viability (4EGI-1 + Tozasertib; first compound 1.581 µM) | relative viability (4EGI-1 + Tozasertib; first compound 5 µM) | relative viability (4EGI-1 + Tozasertib; first compound 15.81 µM) | relative viability (4EGI-1 + Tozasertib; first compound 50 µM) | relative viability (4EGI-1 + Alpelisib; first compound 0.5 µM) | relative viability (4EGI-1 + Alpelisib; first compound 1.581 µM) | relative viability (4EGI-1 + Alpelisib; first compound 5 µM) | relative viability (4EGI-1 + Alpelisib; first compound 15.81 µM) | relative viability (4EGI-1 + Alpelisib; first compound 50 µM) | relative viability (4EGI-1 + Olaparib; first compound 0.5 µM) | relative viability (4EGI-1 + Olaparib; first compound 1.581 µM) | relative viability (4EGI-1 + Olaparib; first compound 5 µM) | relative viability (4EGI-1 + Olaparib; first compound 15.81 µM) | relative viability (4EGI-1 + Olaparib; first compound 50 µM) | relative viability (XMD8-85 + Lapatinib; first compound 0.8 µM)
NCI-H727 | 0.627 | 0.792 | 0.731 | 0.543 | 0.595 | 0.765 | 0.502 | 0.499 | 0.585 | 0.676 | 0.54 | 0.625 | 0.478 | 0.366 | 0.638 | 0.679 | 0.717 | 0.496 | 0.592 | 
LCLC-103H |  |  |  |  | 0.557 | 0.479 | 0.537 | 0.434 | 0.394 | 1.01 | 0.866 | 0.866 | 0.879 | 0.879 | 0.72 | 0.658 | 0.728 | 0.699 | 0.415 | 
ABC-1 | 1.32 | 1.18 | 1.21 | 1.11 | 0.201 | 0.15 | 0.21 | 0.206 | 0.172 | 1.07 | 1.03 | 1.02 | 0.74 | 0.405 | 0.885 |  | 1.19 | 1.16 | 0.269 | 0.942
NCI-H3122 | 1.12 | 1.01 | 1.09 | 0.965 | 0.418 |  | 0.387 | 0.334 | 0.116 | 0.866 | 0.718 | 0.792 | 0.775 | 0.646 | 0.578 | 0.554 | 0.667 | 0.448 | 0.301 | 1.04
NCI-H1648 |  |  |  |  | 0.604 | 0.623 | 0.532 | 0.466 | 0.314 |  |  |  |  |  | 0.742 | 0.79 | 0.965 | 0.566 | 0.48 | 
NCI-H1703 |  | 1.22 | 1.26 | 0.841 |  |  |  |  |  | 0.414 | 0.305 | 0.387 | 0.338 | 0.381 | 0.601 | 0.46 | 0.409 | 0.52 | 0.331 | 1.25
HOP-62 | 1.11 | 0.904 | 1.13 | 0.797 | 0.385 | 0.257 | 0.403 | 0.34 | 0.211 | 1.13 |  | 1.12 | 1.13 | 0.745 | 0.493 |  | 0.445 | 0.208 | 0.267 | 0.978
NCI-H2405 | 1.04 | 1.18 | 1.1 | 0.636 | 0.723 | 0.645 | 0.815 | 0.789 | 0.839 | 1.16 | 0.664 | 0.95 | 0.918 | 0.526 | 0.909 |  | 0.883 | 0.866 | 0.395 | 1.13
LXF-289 | 0.887 | 0.855 | 0.903 | 0.818 | 0.203 | 0.22 | 0.204 | 0.151 | 0.168 | 1.17 | 1.01 | 1.04 | 0.89 | 0.516 | 1.09 | 0.975 | 1.02 | 1.05 | 0.513 | 0.892
NCI-H1355 | 0.956 | 1.03 | 1.08 | 0.875 | 0.551 | 0.551 | 0.559 | 0.429 | 0.291 | 0.876 | 0.79 | 0.772 | 0.477 | 0.504 | 0.86 | 0.742 | 0.795 | 0.469 | 0.334 | 1.01
NCI-H596 | 1.01 | 1.03 | 1.03 | 0.874 | 1.01 | 0.769 | 0.987 | 0.949 | 0.783 | 0.576 | 0.524 | 0.508 | 0.574 | 0.461 | 0.726 | 0.664 | 0.786 | 0.568 | 0.464 | 1.24
NCI-H1975 | 0.897 | 0.832 | 1.1 | 0.441 | 0.773 | 0.653 | 0.785 | 0.523 | 0.179 | 0.673 | 0.81 | 0.702 | 0.627 | 0.469 | 0.893 | 0.682 | 0.805 | 0.812 | 0.292 | 0.886
H3255 | 0.26 | 0.237 | 0.243 | 0.167 | 0.789 | 0.43 | 0.726 | 0.571 | 0.551 | 0.861 | 0.641 | 0.756 | 0.473 | 0.561 | 0.591 | 0.501 | 0.541 | 0.5 | 0.405 | 0.233
COR-L 105 | 0.366 | 0.341 | 0.342 | 0.348 | 0.369 | 0.343 | 0.343 | 0.286 | 0.366 | 1.2 | 0.818 | 1.04 | 0.89 | 0.599 | 0.64 | 0.635 | 0.644 | 0.559 | 0.537 | 0.407
EBC-1 | 0.2 | 0.21 | 0.184 | 0.172 |  |  |  |  |  | 0.947 | 0.876 | 1.08 | 0.477 | 0.273 | 0.808 | 0.755 | 0.765 | 0.506 | 0.237 | 0.174
COR-L23 | 0.896 | 1.09 | 1.08 | 0.913 | 0.215 | 0.145 | 0.189 | 0.157 | 0.0963 | 0.873 | 0.509 | 0.885 | 0.562 | 0.112 | 0.35 | 0.217 | 0.344 | 0.271 | 0.175 | 1.11
NCI-H1793 | 0.845 | 0.826 | 0.781 | 0.814 | 0.318 | 0.364 | 0.391 | 0.247 | 0.2 | 0.868 | 0.883 | 0.679 | 0.668 | 0.577 | 1.02 | 1.16 | 1.13 | 0.504 | 0.234 | 0.857

— the supplement of paper PMC10307832
